# Where two headings read alike, the source gives them in different places.
# Assays:
# [1] = system: C. albicans (ATCC strain 90028); test: Antifungal microdilution broth assay (PrestoBlue), C. albicans; type: cell-based, Candida albicans; settings: 100 μM; for inhibition at 100 µM: Candida albicans
# Method: Sigma-Aldrich) was used as the base medium for testing. […] solution of morpholinepropanesulfonic acid (MOPS; Sigma-Aldrich) was added to the RPMI to a final concentration of 0.165 M for buffering (RPMI-MOPS). This medium was adjusted to a pH of 7.0 with 10 M NaOH and filter sterilized. C. albicans (ATCC strain 90028), C. [NT] strain 66032), and C. tropicalis (ATCC strain 750) were cultured on potato dextrose agar (Sigma-Aldrich) plates, and incubated at 35° C. for 24 hours. For antifungal testing, overnight colonies were adjusted to 1.5×10^3 cells/mL, hereafter referred to as the test inoculum. PrestoBlue® (Life Technologies, Invitrogen, Carlsbad, Calif.), a resazurin-based cell viability reagent that, in metabolically active cells, is reduced from blue, non-fluorescent resazurin, to red, fluorescent resorufin, was used to assess inhibition of yeast growth by the aurones. […] Following addition of aurone, plates were then incubated for 24 hours at 35° C. PrestoBlue was added to a final concentration of 10% in each well and fluorescence read at 560 nm excitation and 590 nm emission, per manufacturer instructions, using a SpectraMax M2e spectrophotometer (Molecular Devices, LLC, Sunnyvale, Calif.). To optimize the PrestoBlue reduction time, RFUs were collected at 15 minute intervals for 4 hours using a reference antifungal. […] IC50 determination was calculated using GraphPad Prism version 7.01 for Windows (GraphPad Software, Inc., La Jolla, Calif.) from the RFUs at dilution points. Calculations were made with a nonlinear regression after transforming the molar concentrations of the aurones into the logarithmic form. Graphing was accomplished utilizing the same program following a four parameter curve fitting sigmoidal plot of the data. All aurones and controls were tested in triplicate and all testing was repeated in at least three independent experiments.
# [2] = system: rat skeletal muscle cell line, L6; test: cells; type: cell-based; settings: Rattus norvegicus
# [3] = system: Trypanosoma cruzi Tulahuen cells expressing beta-galactosidase; test: T. cruzi intracellular assay (beta-galactosidase, L6 host cells); settings: Trypanosoma cruzi, TULAHUEN
# [4] = system: Trypanosoma brucei brucei 427 cells; test: T. brucei culture and assay (PrestoBlue); type: cell-based; settings: Trypanosoma brucei
# [5] = system: Leishmania amazonensis promastigotes expressing beta-lactamase; test: microbe, parasite or virus in culture; type: cell-based; settings: Leishmania amazonensis
# [6] = ATCC90028, Table 4A, read-out: C. albicans inhibition (at 100 μM)
# [7] = Table 3A, weighted means of two or more independent trials, read-out: IC50 L6
# [8] = read-out: IC50 TC-I, Table 3A, weighted means of two or more independent trials
# [9] = Table 1, mean of 2(+) independent trials, read-out: IC50 T. brucei
# [10] = Table 1, read-out: IC50 Toxicity (L6)
# [11] = Table 3C, weighted means of two or more independent trials, read-out: IC50 L6
# [12] = read-out: IC50 TC-I, Table 3C, intracellular T. cruzi, weighted means of two or more independent trials
# [13] = read-out: IC50 T. cruzi, Table 1, intracellular assay, mean of 2(+) trials (^c one trial)
SMILES,"inhibition at 100 µM [1, 6]","IC50 [2, 7]","IC50 [3, 8]",further results
COc1ccc(/C=C2\Oc3cc(O)ccc3C2=O)c(OC)c1OC [Sample 2912],54.8%,,,
COc1cc(/C=C2\Oc3ccccc3C2=O)cc(OC)c1OC [Sample 2002],8.8%,> 100 µM,> 50 µM,
"COc1ccc(/C=C2\Oc3ccccc3C2=O)cc1O [Aurone 9078, (Z)-2-(3-hydroxy-4-methoxybenzylidene)benzofuran-3(2H)-one]",,,,"IC50 [4, 9]: 41.2 µM; IC50 ([5]; read-out: IC50 L. amaz.): 1.45 µM; IC50 [2, 10]: 70.7 µM; inhibition at 100 µM ([1]; ATCC90028, Table 4B, C. albicans, value ± spread, read-out: Percent Inhibition (at 100 μM)): 45.6 ± 2.6%"
O=C1/C(=C/c2cccc([N+](=O)[O-])c2)Oc2ccccc21 [Sample 2015],2.2%,226 µM,22.6 µM,
CC(C)c1ccc(/C=C2\Oc3ccccc3C2=O)cc1 [Sample 8002],26.6%,89 µM,16.6 µM,
Cc1ccc(/C=C2\Oc3ccc(Br)cc3C2=O)cc1 [Sample 6000],6.1%,,,
O=C1/C(=C/C=C/c2ccccc2)Oc2ccccc21 [Sample 2013],64.6%,,,"IC50 [2, 11]: 58 µM; IC50 [3, 12]: 14.1 µM"
CCc1ccc(/C=C2\Oc3ccccc3C2=O)cc1 [Sample 8001],22.8%,> 100 µM,11.4 µM,
O=C1/C(=C/c2cc(Br)cs2)Oc2ccccc21 [Sample 9061],3.1%,,,
COc1ccc(/C=C2\Oc3ccccc3C2=O)c(OC)c1OC [Sample 2001],21.9%,> 100 µM,> 50 µM,
O=C1/C(=C/c2ccc(Br)cc2)Oc2c1ccc(O)c2O [Sample 1005],43.9%,,,
COc1ccc(/C=C2\Oc3ccccc3C2=O)cc1O [Sample 9078],45.6%,70.7 µM,,
O=C1/C(=C/c2ccccc2C(F)(F)F)Oc2ccccc21 [Sample 9086],14.3%,130 µM,18.5 µM,
O=C1/C(=C/c2ccco2)Oc2ccccc21 [Sample 2023],88.5%,,,
O=C1/C(=C/c2ccc[nH]2)Oc2cc(O)ccc21 [Sample 2906],27.5%,,,
COc1cc(Br)c(/C=C2\Oc3ccccc3C2=O)cc1OC [Sample 9056],12.5%,> 100 µM,36 µM,
COc1cc(/C=C2\Oc3ccccc3C2=O)ccc1O [Sample 9053],11.2%,> 200 µM,> 50 µM,
O=C1/C(=C/c2ccc(-c3ccccc3)cc2)Oc2ccccc21 [Sample 2018],59.8%,,,"IC50 [2, 11]: 298 µM; IC50 [3, 12]: 34.4 µM"
COc1ccc2c(c1)O/C(=C\c1ccc[nH]1)C2=O [Aurone 5004],,,,C. albicans inhibition (at 100 μM) ([1]; Table 4A): 14.7%
O=C1/C(=C/c2cccc(C(F)(F)F)c2)Oc2ccccc21 [Sample 9085],20.2%,73.4 µM,11.1 µM,
O=C1/C(=C/c2c[nH]c3ccccc23)Oc2ccccc21 [Sample 9062],16.4%,,,
Cc1ccccc1/C=C1\Oc2ccccc2C1=O [Sample 9057],33.6%,99.6 µM,26.3 µM,
O=C1/C(=C/C=C/c2ccccc2)Oc2ccccc21 [Aurone 2013],,,,"IC50 [4, 9]: 13.2 µM; IC50 ([4]; read-out: T. brucei IC50 dose): 13.2 µM; IC50 ([5]; read-out: IC50 L. amaz.): 3.03 µM; IC50 ([5]; read-out: IC50 L. amaz. (footnote c: value obtained from one trial)): 3.03 µM; IC50 [2, 10]: 58 µM; IC50 [3, 13]: 14.1 µM; IC50 ([3]; read-out: IC50 T. cruzi, Table 2, intracellular assay, mean of 2(+) independent trials): 14.1 µM; IC50 ([3]; read-out: T. cruzi IC50 dose): 14.1 µM"
Cc1ccc(/C=C2\Oc3cc(O)ccc3C2=O)cc1 [Sample 2904],20%,,,
CN(C)c1ccc(/C=C2\Oc3ccccc3C2=O)cc1 [Sample 9087],31.2%,,,"IC50 [2, 11]: 144 µM; IC50 [3, 12]: 5.38 µM"
O=C1/C(=C/c2cccs2)Oc2cc(O)ccc21 [Sample 2901],46.1%,,,
O=C1/C(=C/c2ccncc2)Oc2ccccc21 [Aurone 2008],,,,"IC50 [4, 9]: > 50 µM; IC50 ([5]; read-out: IC50 L. amaz.): 26.3 µM; IC50 [2, 10]: 81.1 µM; IC50 ([2]; Table 3B, weighted means of two or more independent trials, read-out: IC50 L6): 81.1 µM; IC50 [3, 13]: 16.4 µM; IC50 ([3]; read-out: IC50 TC-I, Table 3B, weighted means of two or more independent trials): 16.4 µM"
"O=C1/C(=C/c2ccc[nH]2)Oc2cc(O)ccc21 [Aurone 2906, (Z)-2-((1H-pyrrol-2-yl)methylene)-6-hydroxybenzofuran-3(2H)-one]",,,,"IC50 [4, 9]: 34.6 µM; IC50 ([5]; read-out: IC50 L. amaz.): 19.9 µM; IC50 [2, 10]: > 100 µM; IC50 [3, 13]: > 50 µM"

# — US20200399238A1, “THERAPEUTIC AURONES” (MIDDLE TENNESSEE STATE UNIVERSITY, priority 2016, published 2020)
